Experiments:
[1] = Inhibitory concentration against KDO 8-P synthase
[2] = Inhibitory concentration against Chorismate mutase; set-up: species or system Bacillus subtilis
[3] = Binding affinity constant against KDO 8-P synthase
[4] = kinact was determined.

Row | SMILES | IC50 [1] [µM] | IC50 [2] [µM] | Ki [3] [µM] | K inact [4]
1 | O=C(O)C12CCC(C(=O)O)(CC1=O)C(=O)C2 | > 1000 |  |  | 
2 | CC1(C(=O)[O-])CCC(C(=O)[O-])C1(C)C.[Na+].[Na+] (stereo not given) | > 1000 |  |  | 
3 | O=C(O)CC1(O)CCCCC1 | > 1000 | 350 |  | 
4 | O=C(O)C1C2C=CC(C3CC23)C1C(=O)O (stereo not given) | > 1000 |  |  | 
5 | CCCC/N=C(\S)C(O)C(O)C(O)C(O)CO (stereo not given) | 400 |  | 2300 | 0.01
6 | O=C(O)C1=C(C(=O)O)C2C=CC1[C@@H]1C(C(=O)O)[C@H]21 (stereo not given in full) | > 500 |  |  | 
7 | O=C(O)C1C2C=CC(CCC2)C1C(=O)O (stereo not given) | > 1000 |  |  | 

From ChEMBL document CHEMBL1133822, “Studies on 3-deoxy-D-manno-octulosonic acid 8-phosphate synthase using chorismate mutase inhibitors” (Bioorg Med Chem Lett, 2001)
